# Values of other authors, collected in patent publication US20220184070A1, “LOW-DOSE TRIPLE COMBINATION FORMULATION” (The George Institute for Global Health, priority 2019, published 2022).
# Marks after values point to notes of the source that are not given here.
# System: plasma glucose
compound,measurement,setting,value
"N[C@@H](CC(=O)N1CCn2c(nnc2C(F)(F)F)C1)Cc1cc(F)c(F)cc1F [Sitagliptin, sitagliptin]","Percentage change in plasma glucose from pre-prandial adjusted for placebo, at 2 h PPG","single dose 100 mg monotherapy, published studies",−6.3%
same,Difference in mean 2 h post-prandial glucose (PPG) vs placebo,"single dose 100 mg, 180 min, FIG. 4",~1 mmol/L
same,Maximum difference in plasma glucose between sitagliptin and placebo,"single dose 100 mg, at 120 min post-dose (90 min post-meal), FIG. 4",1.5 mmol/L
same,"Percentage change in plasma glucose from pre-prandial adjusted for placebo, Maximum","single dose 100 mg, maximum achieved at 1.5 h post-prandial, published studies",−20.3^a %
same,Time at which maximum PPG and serum insulin were achieved,"single dose 100 mg, post-dose (0.5 h post-meal), FIG. 4",~1 h
